Tests used:
Assay type in all cases: cell-based
[1] = biological target: T1, mouse SMO^D473H (Mus musculus, UniProt P56726, D477H); assay: Mouse assay: Gli1 qPCR in MEF cells stably expressing mouse SMO D473H; conditions: mSHh-treated, 24 hours; for IC50: Gli1 inhibition by qPCR, read-out: Mouse D473H pIC50 (converted); for Mouse D473H % Inh: percentage Gli1 inhibition
T1 construct: expressed in transfected cells
Method: (§1) Cell culture. All materials were purchased from Sigma-Aldrich, unless otherwise stated.
(§2) Compound treatment. […] After 1 hour incubation, cells were treated with assay medium containing mSHh prepared at 2.5× of final assay concentrations specified in the text and incubated for a further 24 hours at 37′C in a humidified 95% air/5% CO2 atmosphere prior to qPCR analysis.
(§3) Cell lysis and one-step qPCR. The Cells-to-CT™ 1-Step TaqMan® Kit was used in conjunction with TaqMan primer-probe assays for the detection of Gli1 (FAM, Mm00494654_m1) and Gusb (VIC, Mm01197698_m1) genes (all purchased from Life Technologies). Following 24 hours cell treatment, spent medium was removed and cells were washed with PBS before the application of lysis and stop solution as per manufacturer's instructions. The qPCR reactions were run in a 384-well PCR plate using master mix prepared according to manufacturer's instructions and cell lysate samples from treatment wells. Real-time PCR amplification was detected using the Bio-Rad CFX384 Touch PCR system. Four experimental replicates (two cell replicates and two qPCR replicates) were performed for each compound concentration tested. Real-time data were analysed using the CFX Maestro software (Bio-Rad) and obtained expression values were converted to percentage Gli1 inhibition by normalising to the average Gli1 expression of mSHh-treated control samples.

[2] = biological target: T2, mouse SMO^WT (Mus musculus, UniProt P56726); assay: Mouse assay: Gli1 qPCR in MEF cells stably expressing mouse SMO WT; conditions: mSHh-treated, 24 hours; for IC50: Gli1 inhibition by qPCR, read-out: Mouse WT pIC50 (converted); for Mouse WT % Inh: percentage Gli1 inhibition
T2 construct: expressed in transfected cells
T2 sequence (P56726 33-793): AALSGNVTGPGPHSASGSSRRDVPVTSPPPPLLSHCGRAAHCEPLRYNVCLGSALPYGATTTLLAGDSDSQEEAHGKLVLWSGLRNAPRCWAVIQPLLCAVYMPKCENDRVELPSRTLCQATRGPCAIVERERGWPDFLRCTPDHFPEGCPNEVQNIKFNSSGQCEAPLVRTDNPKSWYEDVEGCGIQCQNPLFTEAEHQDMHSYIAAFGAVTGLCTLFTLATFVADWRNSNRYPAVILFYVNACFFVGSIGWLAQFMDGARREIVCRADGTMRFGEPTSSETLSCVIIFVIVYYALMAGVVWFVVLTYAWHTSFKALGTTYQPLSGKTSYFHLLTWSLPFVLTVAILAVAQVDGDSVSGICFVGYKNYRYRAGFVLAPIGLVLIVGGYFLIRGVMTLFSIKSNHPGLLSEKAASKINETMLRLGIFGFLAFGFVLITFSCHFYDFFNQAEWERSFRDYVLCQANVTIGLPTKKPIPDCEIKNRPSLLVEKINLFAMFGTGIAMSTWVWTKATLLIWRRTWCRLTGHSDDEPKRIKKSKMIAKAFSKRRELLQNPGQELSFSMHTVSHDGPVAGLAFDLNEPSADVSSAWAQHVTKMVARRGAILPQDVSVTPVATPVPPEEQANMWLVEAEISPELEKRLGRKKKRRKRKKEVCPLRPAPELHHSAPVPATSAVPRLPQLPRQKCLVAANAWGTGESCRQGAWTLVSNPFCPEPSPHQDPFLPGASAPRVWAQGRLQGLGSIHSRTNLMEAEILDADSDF
Method: as §1, §2, §3

[3] = biological target: T3, mouse SMO^W535L (Mus musculus, UniProt P56726, W539L); assay: Mouse assay: Gli1 qPCR in MEF cells stably expressing mouse SMO W535L; conditions: mSHh-treated, 24 hours; for IC50: Gli1 inhibition by qPCR, read-out: Mouse W535L pIC50 (converted); for Mouse W535L % Inh: percentage Gli1 inhibition
T3 construct: expressed in transfected cells
T3 sequence (P56726 33-793 W539L): as the sequence (P56726 33-793) above, with W507L counted along it
Method: as §1, §2, §3

T1 sequence (P56726 33-793 D477H): as the sequence (P56726 33-793) above, with D445H counted along it

Compound	IC50 [1] [nM]	Mouse D473H % Inh [1] [%]	IC50 [2] [nM]	Mouse WT % Inh [2] [%]	IC50 [3] [nM]	Mouse W535L % Inh [3] [%]
COc1ccc(-c2n[nH]c(-c3ccc(NC(=O)c4cccc(CN5CCS(=O)(=O)CC5)c4)cc3)n2)cc1 [Example 3-12, 3-[(1,1-Dioxo-1,4-thiazinan-4-yl)methyl]-N-[4-[5-(4-methoxyphenyl)-1H-1,2,4-triazol-3-yl]phenyl]benzamide]	200	97.5	12.6	99.0	316	53.3
O=C(Nc1ccc(-c2nc(-c3cccc(Oc4nccs4)c3)n[nH]2)cc1)c1cccc(CN2CCS(=O)(=O)CC2)c1 [Example 3-13, 3-[(1,1-Dioxo-1,4-thiazinan-4-yl)methyl]-N-[4-[3-[3-(1,3-thiazol-2-yloxy)phenyl]-1H-1,2,4-triazol-5-yl]phenyl]benzamide]	631	78.5	79.4	97.4	> 3310	76.7
O=C(Nc1ccc(-c2nc(-c3ccc(COc4ccccc4F)cc3)n[nH]2)cc1)c1cccc(CN2CCS(=O)(=O)CC2)c1 [Example 3-14, 3-[(1,1-Dioxo-1,4-thiazinan-4-yl)methy]-N-[4-[3-[4-[(2-fluorophenoxy)methyl]phenyl]-1H-1,2,4-triazol-5-yl]phenyl]benzamide]	251	95.2	39.8	97.3	631	50.9
O=C(Nc1ccc(-c2nc(-c3ccccn3)n[nH]2)cc1)c1cccc(CN2CCS(=O)(=O)CC2)c1 [Example 3-15, 3-[(1,1-Dioxo-1,4-thiazinan-4-yl)methyl]-N-[4-(3-pyridin-2-yl-1H-1,2,4-triazol-5-yl)phenyl]benzamide]	1000	97.0	79.4	98.9	398	53.4
O=C(Nc1ccc(-c2nc(-c3ccc(C(F)(F)F)s3)n[nH]2)cc1)c1cccc(CN2CCS(=O)(=O)CC2)c1 [Example 3-16, 3-[(1,1-Dioxo-1,4-thiazinan-4-yl)methyl]-N-[4-[3-[5-(trifluoromethyl)thiophen-2-yl]-1H-1,2,4-triazol-5-yl]phenyl]benzamide]	794	93.9	100	99.4	794	58.5
O=C(Nc1ccc(-c2nc(Cc3ccccc3)n[nH]2)cc1)c1cccc(CN2CCS(=O)(=O)CC2)c1 [Example 3-17, N-[4-(3-Benzyl-1H-1,2,4-triazol-5-yl)phenyl]-3-[(1,1-dioxo-1,4-thiazinan-4-yl)methyl]benzamide]	100	99.0	6.31	99.4	39.8	54.3
Cc1ccc(Cc2n[nH]c(-c3ccc(NC(=O)c4cccc(CN5CCS(=O)(=O)CC5)c4)cc3)n2)cc1 [Example 3-18, 3-[(1,1-Dioxo-1,4-thiazinan-4-yl)methyl]-N-[4-[5-[(4-methylphenyl)methyl]-1H-1,2,4-triazol-3-yl]phenyl]benzamide]	79.4	98.1	3.16	98.5	25.1	65.7

Further lines, results first:

IC50 [1] [nM]	Mouse D473H % Inh [1] [%]	IC50 [2] [nM]	Mouse WT % Inh [2] [%]	IC50 [3] [nM]	Mouse W535L % Inh [3] [%]	Compound
316	96.9	25.1	99.1	39.8	64.3	O=C(Nc1ccc(-c2nc(Cc3ccccc3F)n[nH]2)cc1)c1cccc(CN2CCS(=O)(=O)CC2)c1 [Example 3-19, 3-[(1,1-Dioxo-1,4-thiazinan-4-yl)methy]-N-[4-[3-[(2-fluorophenyl)methyl]-1H-1,2,4-triazol-5-yl]phenyl]benzamide]
251	96.8	15.8	99.0	25.1	66.1	O=C(Nc1ccc(-c2nc(Cc3cccc(F)c3)n[nH]2)cc1)c1cccc(CN2CCS(=O)(=O)CC2)c1 [Example 3-20, 3-[(1,1-Dioxo-1,4-thiazinan-4-yl)methy]-N-[4-[3-[(3-fluorophenyl)methyl]-1H-1,2,4-triazol-5-yl]phenyl]benzamide]
794	82.3	100	97.5	501	64.1	O=C(Nc1ccc(-c2nc(Cc3ccc(F)cc3)n[nH]2)cc1)c1cccc(CN2CCS(=O)(=O)CC2)c1 [Example 3-21, 3-[(1,1-Dioxo-1,4-thiazinan-4-yl)methy]-N-[4-[3-[(4-fluorophenyl)methyl]-1H-1,2,4-triazol-5-yl]phenyl]benzamide]
63.1	98.2	7.94	98.5	31.6	60.1	COc1cccc(Cc2n[nH]c(-c3ccc(NC(=O)c4cccc(CN5CCS(=O)(=O)CC5)c4)cc3)n2)c1 [Example 3-22, 3-[(1,1-Dioxo-1,4-thiazinan-4-yl)methy]-N-[4-[5-[(3-methoxyphenyl)methyl]-1H-1,2,4-triazol-3-yl]phenyl]benzamide]
316	95.0	7.94	99.5	25.1	58.2	O=C(Nc1ccc(-c2nc(Cc3ccc(Cl)cc3)n[nH]2)cc1)c1cccc(CN2CCS(=O)(=O)CC2)c1 [Example 3-23, N-[4-[3-[(4-Chlorophenyl)methyl]-1H-1,2,4-triazol-5-yl]phenyl]-3-[(1,1-dioxo-1,4-thiazinan-4-yl)methyl]benzamide]
100	97.4	2	98.5	39.8	80.5	Cc1ccc(Cc2n[nH]c(-c3ccc(NC(=O)c4cccc(CN5CCS(=O)(=O)CC5)c4)cc3)n2)cc1C [Example 3-25, N-[4-[5-[(3,4-Dimethylphenyl)methyl]-1H-1,2,4-triazol-3-yl]phenyl]-3-[(1,1-dioxo-1,4-thiazinan-4-yl)methyl]benzamide]
501	87.1	15.8	98.3	251	64.8	O=C(Nc1ccc(-c2nc(Cc3cc(Cl)ccc3Cl)n[nH]2)cc1)c1cccc(CN2CCS(=O)(=O)CC2)c1 [Example 3-26, N-[4-[3-[(2,5-Dichlorophenyl)methyl]-1H-1,2,4-triazol-5-yl]phenyl]-3-[(1,1-dioxo-1,4-thiazinan-4-yl)methyl]benzamide]
631	97.0	15.8	99.3	158	57.3	Cc1cc(Cc2n[nH]c(-c3ccc(NC(=O)c4cccc(CN5CCS(=O)(=O)CC5)c4)cc3)n2)ccc1Br [Example 3-27, N-[4-[5-[(4-Bromo-3-methylphenyl)methyl]-1H-1,2,4-triazol-3-yl]phenyl]-3-[(1,1-dioxo-1,4-thiazinan-4-yl)methyl]benzamide]
794	97.7	79.4	99.4	316	59.7	O=C(Nc1ccc(-c2nc(Cc3ccc4c(c3)OCCO4)n[nH]2)cc1)c1cccc(CN2CCS(=O)(=O)CC2)c1 [Example 3-28, N-[4-[3-(2,3-Dihydro-1,4-benzodioxin-6-ylmethyl)-1H-1,2,4-triazol-5-yl]phenyl]-3-[(1,1-dioxo-1,4-thiazinan-4-yl)methyl]benzamide]
251	98.9	25.1	99.1	126	64.8	O=C(Nc1ccc(-c2nc(Cc3cc4c(cc3Cl)OCO4)n[nH]2)cc1)c1cccc(CN2CCS(=O)(=O)CC2)c1 [Example 3-29, N-[4-[3-[(6-Chloro-1,3-benzodioxol-5-yl)methyl]-1H-1,2,4-triazol-5-yl]phenyl]-3-[(1,1-dioxo-1,4-thiazinan-4-yl)methyl]benzamide]
631	98.4	79.4	99.0	501	69.1	COc1ccc(Cc2n[nH]c(-c3ccc(NC(=O)c4cccc(CN5CCS(=O)(=O)CC5)c4)cc3)n2)cn1 [Example 3-30, 3-[(1,1-Dioxo-1,4-thiazinan-4-yl)methyl]-N-[4-[5-[(6-methoxypyridin-3-yl)methyl]-1H-1,2,4-triazol-3-yl]phenyl]benzamide]
